Patent publication US20130178453A1, “Cannabinoid Agonists” (priority 2010, published 2013)
Where two headings read alike, the source gives them in different places.

Tests used:
hCB1 [1] = molecular target: T1, hCB1 (Homo sapiens, UniProt P21554); assay: hCB1 radioligand binding assay ([3H]-CP 55,940 displacement); conditions: HEK membranes
From the text: (§1) cDNA expression clones for human CB 1 (hCB1, Genbank Accession No. AY225225) and human CB2 (hCB2, Genbank Accession No. AY242132) expressed in vector pcDNA3.1+ were purchased from UMR cDNA Resource Center, Rolla, Mo. (Clone ID CNR01L000 for hCB1; CNR0200000 for hCB2).
Stable, HEK-293-derived cell lines that recombinantly express hCB1 or hCB2 were established. In brief, the clone hCB1 (CNR1L) or hCB2 (CNR2) was transfected into human embryonic kidney cells (HEK-293) using Lipofectamine 2000 (Gibco, Cat#11668-019) according to the manufacturer's protocol. Transfected clones were isolated by single colony purification and clones were screened for receptor expression using a whole cell, ^3H—CP 55,940 radioligand binding assay. HEK-293 stable cells were maintained in Dulbecco's modified Eagles medium (DMEM) containing 10% fetal bovine serum, 2 mM L-glutamine and 0.5 mg/mL G-418.
(§2) Membranes were isolated from transfected cells as follows. Monolayers of cultured cells were washed twice with phosphate-buffered saline (PBS). Cells were scraped into 20 mM HEPES, pH 7.4, 10 mM EDTA containing complete cocktail protease inhibitors (Roche, Catalog #11 697 498 001), and were homogenized by an electric-powered mechanical probe homogenizer (Omni GLH; probe G7-195S) for 40 seconds at 7000 rpm. Homogenates were centrifuged 10 minutes at 1000×g at 4° C. The supernatant was collected and was centrifuged for 1 hour at 40,000×g. The supernatant was then decanted and the resulting pellet was re-suspended in 20 mM HEPES, pH 7.4, 5 mM MgCl2, 1 mM EDTA, 10% sucrose with complete cocktail protease inhibitors. Protein concentration of membrane suspensions were measured by Bradford Protein Assay using bovine serum albumin as the standard (BioRad catalog #500-0006). Protein concentrations of membrane suspensions were adjusted with the final buffer in the range of 5 to 10 mg/mL and were stored at −80° C. until further use.
Radioligand binding assays were performed by incubating membranes (2-10 μg protein) prepared from HEK-293 cells expressing recombinant human cannabinoid receptors, CB 1 or CB2, at room temperature with 0.5 nM cannabinoid receptor agonist, [^3H]-CP 55,940 (Perkin Elmer, catalog #NET 1051) in 0.2 mL of binding buffer (50 mM Tris-HCl, pH 7.5, 5 mM MgCl2, 2.5 mM EDTA) and 0.1% fatty acid free bovine serum albumin (Sigma Cat. #A0821) for 90 minutes. A rapid filtration technique using Millipore FB filter plates (Catalog #MADVNOB) and filtration apparatus (Millipore system Catalog MAVM0960R) with vacuum aspiration was used to harvest and rinse labeled membranes (8 times with 0.2 mL of chilled binding buffer). The radioactivity bound to the filters was counted with 0.05 mL of liquid scintillant (UltraGold MV, PerkinElmer catalog #6013159) in a scintillation counter (Perkin Elmer Microbeta instrument). Nonspecific binding was determined in the presence of unlabeled 1 μM CP 55,940 (Sigma Aldrich, catalog #C1112). Binding data were analyzed using GraphPad Prism (GraphPad Software, Inc. San Diego, Calif.).

hCB1 [2] = molecular target: T1, hCB1; assay: hCB1 cAMP agonist assay (HEK-293 cells); type: cell-based
hCB2 [3] = molecular target: T2, hCB2 (Homo sapiens, UniProt P34972); assay: hCB2 cAMP agonist assay (HEK-293 cells); type: cell-based
T2 sequence (P34972 whole entry): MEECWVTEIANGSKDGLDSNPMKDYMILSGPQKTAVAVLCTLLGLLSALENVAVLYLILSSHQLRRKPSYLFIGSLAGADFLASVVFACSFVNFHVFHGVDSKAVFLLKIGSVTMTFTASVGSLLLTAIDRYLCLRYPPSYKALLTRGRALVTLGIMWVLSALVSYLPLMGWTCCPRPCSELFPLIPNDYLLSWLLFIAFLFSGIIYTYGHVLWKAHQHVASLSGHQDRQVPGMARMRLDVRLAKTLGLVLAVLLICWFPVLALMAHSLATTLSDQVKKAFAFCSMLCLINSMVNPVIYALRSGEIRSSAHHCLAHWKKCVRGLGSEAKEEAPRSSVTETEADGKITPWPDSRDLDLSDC
Method: as §1
cAMP assays were performed in HEK-293 cells stably expressing human CB 1 or CB2 receptors. […] Cells suspensions were centrifuged and the cells were washed once with PBS, were centrifuged again, and the cells were resuspended in HBSS (Hank's Balanced Salt Solution, Cellgro, Cat #21-022-CV) solution containing 10 mM HEPES and 0.1% fatty acid free BSA (Sigma, Cat #A0281). Cell suspensions were prepared at 1,500,000 cells per mL. Stock solutions of test substances (10 mM) in DMSO were diluted to 1 mM using 30% DMSO as diluent. Test substances of solutions (1 mM) were further diluted down to 3× of final assay concentrations in the above HBSS buffer containing 0.1% BSA in the presence of 90 uM forskolin (Sigma Cat#F6886). To perform the assay, 20 μL of cell suspension (1,500,000 cells/mL) were added to each well in 96 well plate and treated with 10 μL test substance solution diluted as described above. Cells and compounds were incubated at 37° C. for 30 minutes. Cells were lysed and cAMP concentration was measured using DiscoveRx-XS+ cAMP assay kit (DiscoveRx Corporation Ltd., Fremont, Calif., USA, Cat #90-0075-03), following the manufacturer's protocol. GraphPad Prism software was used to calculate EC50 values using sigmoidal dose response curve fitting. The maximal amount of cAMP produced by forskolin was defined as 100%.

hCB2 [4] = molecular target: T2, hCB2; assay: hCB2 radioligand binding assay ([3H]-CP 55,940 displacement); conditions: HEK membranes
Method: as §1
as §2, with “Cells were scraped into 20 mM HEPES, pH 7.4, 10 mM EDTA containing complete cocktail protease inhibitors (Roche, Catalog #11 697 498 001), and were homogenized by an electric-powered mechanical probe homogenizer (Omni GLH; probe G7-195S) for 40 seconds at 7000 rpm.” left out
A rapid filtration technique using Millipore FB filter plates (Catalog #MADVNOB) and filtration apparatus (Millipore system Catalog MAVM0960R) with vacuum aspiration was used to harvest and rinse labeled membranes (8 times with 0.2 mL of chilled binding buffer). […] Binding data were analyzed using GraphPad Prism (GraphPad Software, Inc. San Diego, Calif.).

hCB2 [5] = molecular target: T2, hCB2; assay: hCB2 GTPγS agonist assay (HEK-293 membranes); type: biochemical
Method: as §1
as §2, with “Cells were scraped into 20 mM HEPES, pH 7.4, 10 mM EDTA containing complete cocktail protease inhibitors (Roche, Catalog #11 697 498 001), and were homogenized by an electric-powered mechanical probe homogenizer (Omni GLH; probe G7-195S) for 40 seconds at 7000 rpm.” left out
^35S GTPγS binding assays were performed by incubating recombinant cell membranes prepared above (5 μg) in the presence of scintillation proximity assay beads (SPA beads, Catalog #RPNQ0252 GE Healthcare, Buckinghamshire, England) in GTPγS binding buffer [50 mM HEPES (pH 7.4), 100 mM NaCl, 5 mM MgCl2, 0.001% saponin (Sigma catalog #S4521)] supplemented with 20 uM GDP (Sigma catalog #G7127) in the presence or absence of test compound. The reaction was carried out in 96-well microplates with 0.1 nM [^35S]GTPγS (specific activity=1250 Ci/mmol; Perkin Elmer catalog #NEG030X250UC) in a final volume of 100 μL. After a 90 min room temperature incubation, the reaction was analyzed using a scintillation counter (Perkin Elmer Microbeta instrument). Binding data were analyzed using GraphPad Prism.

[6] = cAMP agonist, HEK, 96-well, read-out: hCB2 EC50 (cAMP ag, nM, HEK (96-well))
[7] = GTPγS agonist, HEK membranes, read-out: hCB2 EC50 (GTPyS ag, nM, HEK)
[8] = read-out: hCB1 IC50 (CP displ, nM, HEK)
[9] = read-out: hCB2 IC50 (CP displ, nM, HEK)

T1 sequence (P21554 whole entry): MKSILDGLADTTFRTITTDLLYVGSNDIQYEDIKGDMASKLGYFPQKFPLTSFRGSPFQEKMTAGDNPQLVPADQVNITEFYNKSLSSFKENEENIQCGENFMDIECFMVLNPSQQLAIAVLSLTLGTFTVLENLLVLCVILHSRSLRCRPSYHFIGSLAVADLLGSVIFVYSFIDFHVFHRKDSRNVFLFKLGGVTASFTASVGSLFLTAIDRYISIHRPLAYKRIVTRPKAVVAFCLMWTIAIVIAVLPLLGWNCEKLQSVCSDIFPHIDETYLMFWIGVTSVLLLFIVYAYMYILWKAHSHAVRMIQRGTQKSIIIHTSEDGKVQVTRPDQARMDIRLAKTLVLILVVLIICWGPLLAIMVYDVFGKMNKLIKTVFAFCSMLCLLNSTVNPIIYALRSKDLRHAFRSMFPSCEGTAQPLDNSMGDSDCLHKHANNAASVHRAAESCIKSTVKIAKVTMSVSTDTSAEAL

SMILES | IC50 (hCB1 [1]; hCB1 IC50 (CP displ, nM, HEK)) | hCB1 EC50 (cAMP ag, nM, HEK (96-well)) (hCB1 [2]; cAMP agonist, HEK) | EC50 (hCB2 [3]; [6]) | IC50 (hCB2 [4]; hCB2 IC50 (CP displ, nM, HEK)) | EC50 (hCB2 [3]) | EC50 (hCB2 [5]) | hCB1 EC50 (cAMP ag, nM HEK (24-well)) (hCB1 [2]; cAMP agonist, HEK, 24-well) | EC50 (hCB2 [5]; [7]) | IC50 (hCB1 [1]; [8]) | IC50 (hCB2 [4]; [9]) | EC50 (hCB1 [2])
CCCn1c(C(=O)c2c(C)[nH]c3ccccc23)cc2ccsc21 [Compound I-51] | > 10000 nM | NS (“Not Significant,” which means less than 30% agonist activity when compared to the positive control) | 100 to 1000 nM | 100 to 1000 nM |  |  |  |  |  |  | 
CCCn1c(C)c(C(=O)c2cc3sccc3[nH]2)c2ccccc21 [Compound I-81] | 1000 to 10000 nM | NS (“Not Significant,” which means less than 30% agonist activity when compared to the positive control) |  | 100 to 1000 nM | 100 to 1000 nM | 100 to 1000 nM |  |  |  |  | 
CCCn1c(C)c(C(=O)c2cc3ccsc3n2CCC)c2c1CCCC2 [Compound I-77] | 1000 to 10000 nM | NS (“Not Significant,” which means less than 30% agonist activity when compared to the positive control) | < 100 nM | < 100 nM |  |  | NS (“Not Significant,” which means less than 30% agonist activity when compared to the positive control) | < 100 nM |  |  | 
CCn1c(C(=O)c2c[nH]c3ccncc23)cc2ccsc21 [Compound I-39] |  | NS (“Not Significant,” which means less than 30% agonist activity when compared to the positive control) |  |  |  |  |  |  | > 10000 nM | > 10000 nM | 
CCCn1cc(C(=O)c2cc3ccsc3n2C)c2ccccc21 [Compound I-32] | 100 to 1000 nM |  |  | < 100 nM | < 100 nM | < 100 nM |  |  |  |  | 100 to 1000 nM
CCCn1c(C(=O)c2c(C)n(CCC)c3sccc23)cc2ccccc21 [Compound I-14] | 100 to 1000 nM | NS (“Not Significant,” which means less than 30% agonist activity when compared to the positive control) |  | 100 to 1000 nM | 100 to 1000 nM | 100 to 1000 nM |  |  |  |  | 
CCCn1c(C)c(C(=O)c2cc3ccsc3n2CC2CCOCC2)c2ccccc21 [Compound I-72] | 100 to 1000 nM | NS (“Not Significant,” which means less than 30% agonist activity when compared to the positive control) | < 100 nM | 100 to 1000 nM |  |  |  | 100 to 1000 nM |  |  | 
CCCn1c(C)c(C(=O)c2cc3scnc3[nH]2)c2ccccc21 [Compound I-30] | > 10000 nM | NS (“Not Significant,” which means less than 30% agonist activity when compared to the positive control) |  | 1000 to 10000 nM |  |  |  |  |  |  | 
CCCn1c(C(=O)c2c(C)n(S(=O)(=O)CC)c3ccccc23)cc2ccsc21 [Compound I-67] | > 10000 nM | NS (“Not Significant,” which means less than 30% agonist activity when compared to the positive control) | 100 to 1000 nM | 100 to 1000 nM |  |  |  |  |  |  | 
CCCn1c(C)c(C(=O)c2c(C)[nH]c3sccc23)c2ccccc21 [Compound I-6] | > 10000 nM | NS (“Not Significant,” which means less than 30% agonist activity when compared to the positive control) |  | > 10000 nM |  |  |  |  |  |  | 
CCOC(=O)CCn1c(C)c(C(=O)c2cc3ccsc3n2CC)c2ccccc21 [Compound I-26] | > 10000 nM | NS (“Not Significant,” which means less than 30% agonist activity when compared to the positive control) | < 100 nM | 100 to 1000 nM |  |  |  |  |  |  | 
CCCn1c(C(=O)c2c(C)[nH]c3ccc(C)cc23)cc2ccsc21 [Compound I-68] | > 10000 nM | NS (“Not Significant,” which means less than 30% agonist activity when compared to the positive control) |  | 1000 to 10000 nM |  |  |  |  |  |  | 
CCn1c(C(=O)c2c(C)[nH]c3ccccc23)cc2ccsc21 [Compound I-38] |  | NS (“Not Significant,” which means less than 30% agonist activity when compared to the positive control) |  |  |  |  |  |  | > 10000 nM | 1000 to 10000 nM | 
CCCn1c(C(=O)c2c[nH]c3ccncc23)cc2ccsc21 [Compound I-44] |  | NS (“Not Significant,” which means less than 30% agonist activity when compared to the positive control) |  |  |  |  |  |  | > 10000 nM | > 10000 nM | 
CCCn1c(C)c(C(=O)c2cc3ccsc3n2CC)c2c1CCCC2 [Compound I-85] | 1000 to 10000 nM |  |  | < 100 nM | < 100 nM | < 100 nM |  |  |  |  | 
CCCn1c(C(=O)c2c3c(n(CCN4CCOCC4)c2C)CCCC3)cc2ccsc21 [Compound I-79] | 100 to 1000 nM |  | < 100 nM | < 100 nM |  |  |  | < 100 nM |  |  | 
CCn1c(C(=O)c2c[nH]c3cnccc23)cc2ccsc21 [Compound I-40] |  | NS (“Not Significant,” which means less than 30% agonist activity when compared to the positive control) |  |  |  |  |  |  | > 10000 nM | > 10000 nM | 
Cc1c(C(=O)c2cc3ccsc3[nH]2)c2ccccc2n1CCN1CCOCC1 [Compound I-82] | 1000 to 10000 nM |  |  | 100 to 1000 nM | 100 to 1000 nM | 100 to 1000 nM |  |  |  |  | 
CCCn1c(C)c(C(=O)c2cc3cc(C)n(CCC)c3s2)c2ccccc21 [Compound I-56] | 1000 to 10000 nM |  |  | < 100 nM | < 100 nM | < 100 nM |  |  |  |  | 
